“Also recorded” adds a separate entry of the source. Where two headings read alike, the source gives them in different places.
Assays:
[1] = system: acne; conditions: cream 16% wt. applied to face for 3 hours, non-coherent red light, repeated 2 weeks later; cited from earlier work
[2] = Method A investigation of efficacy and inflammation with 30 min pulse exposure PDT; assay type: in vivo
Description: (§1) The formation of PPIX after 3 hours is seen in FIG. 8, and the relation to inflammation is seen in FIG. 9. […] The results are illustrated in Column 3 in FIGS. 4, 5, 6, and 7. […] Pain level is not changed.

[3] = system: PpIX fluorescence; experiment: Metvix pulse time investigation (Method B) on healthy volunteers: PpIX fluorescence; assay type: in vivo, human; conditions: short (30 min) pulse vs conventional 3-hour exposure; Table 1 and FIG. 8
Description: as §1
Twenty-four healthy male volunteers of Scandinavian ancestry were included in the study (mean age 30 years, range 20-51). A treatment area was selected on the inside of both forearms of the volunteer. Each treatment area was divided into four minor treatment fields of the size 2×5 cm with at least 3 cm between each field using a prefabricated flexible template. In order to imitate skin lesions all fields were tape stripped 10 times with occlusive dressing before treatment (Tegaderm™ Roll, 3M, Glostrup, Denmark). […]
All fields were covered with light-impermeable, occlusive dressing. […] During and after illumination pain was recorded. […]
5-MAL-induced PpIX fluorescence was depicted non-invasively using a fluorescence camera (Medeikonos AB, Gothenburg, Sweden). The amount of PpIX fluorescence was calculated from the photographs by the program MatLab® (MatLab®, MathWorks, Natic, US). The amount of fluorescence was measured before tape stripping and cream application (baseline) and before and after illumination.
The photo bleaching is then the difference in PpIX fluorescence (AU) calculated from the pre and post illumination images.

[4] = system: acne; conditions: 20% ALA acid applied to back for 3 hours, 150 J/cm2 broad band light; cited from earlier work

Row | Structure (SMILES) | efficacy in treatment of acne [1] | side effects of treatment [1] | inflammation (erythema) ([2]; 30 min pulse exposure vs conventional 180 min exposure, FIGS. 6, 7) | pain level ([2]; 30 min pulse exposure vs conventional exposure, FIG. 4) | cure rate / efficacy ([2]; 30 min pulse exposure vs conventional exposure, FIG. 5) | PPIX concentration, pulse exposure versus conventional 3-hour exposure [3] | efficacy in treatment of acne [4] | side effects of treatment [4]
1 | COC(=O)CCC(=O)CN [5-MAL, 5-ALA methyl ester] | effective in the treatment of acne | caused pain and induced severe inflammation | less inflammation | not changed | unchanged efficacy; also recorded: as efficient | clearly lower than for the conventional 3 hour exposure |  | 
2 | NCC(=O)CCC(=O)O [ALA, 5-amino-4-oxo-pentanoic acid] |  |  |  |  |  |  | effective for the treatment of acne | erythema, hyperpigmentation and exfoliation were often seen after PDT treatment

— patent US20160346392A1, “PULSE PHOTODYNAMIC TREATMENT OF SKIN CONDITIONS” (GALDERMA RESEARCH & DEVELOPMENT, priority 2013, published 2016)
